Assay results from US6503881B2 (priority 1996, dated 2003).
Values after ≈ are worked out from the molar mass of the structure shown. Like-named read-outs stand apart in the source and are kept apart here. Peptide text beside a SMILES is read from it.

Experiments:
[1] = system: microorganisms with acquired resistance; experiment: microbe, parasite or virus in culture
[2] = system: microorganisms with acquired resistance
[3] = system: P. aeruginosa; type: cell-based
[4] = system: inherently resistant microorganisms
[5] = system: bacterial isolates; settings: for FIC: Tobramycin + peptide; for PIC: with Gentamicin
[6] = system: bacteria
[7] = S. aureus SA25 (Ciprofloxacin section)
[8] = S. maltophilia SMA018, pair Amikacin / MBI 21A2
[9] = peptide + Tobramycin, S. maltophilia SMA029
[10] = peptide + Tobramycin, S. maltophilia SMA030
[11] = S. maltophilia SMA018, pair Amikacin / MBI 11B16CN
[12] = S. maltophilia SMA022, pair Amikacin / MBI 11B16CN

COc1cccc(OC)c1C(=O)N[C@@H]1C(=O)N2[C@@H]1SC(C)(C)[C@@H]2C(=O)O [Methicillin]
MIC ([1]; Staphylococcus aureus, read-out: MIC alone, S. aureus SA7796, pair Methicillin / MBI 31): 16 µg/mL (≈ 42.1 µM)
MIC ([1]; Staphylococcus aureus, read-out: MIC alone, S. aureus SA7797, pair Methicillin / MBI 31): 16 µg/mL (≈ 42.1 µM)
MIC ([1]; Staphylococcus aureus, read-out: MIC alone, S. aureus SA7818, pair Methicillin / MBI 26): 16 µg/mL (≈ 42.1 µM)
MIC ([1]; Staphylococcus aureus, read-out: MIC alone, S. aureus SA7823, pair Methicillin / MBI 31): 16 µg/mL (≈ 42.1 µM)
MIC ([1]; Staphylococcus aureus, read-out: MIC alone, S. aureus SA7834, pair Methicillin / MBI 26): 32 µg/mL (≈ 84.1 µM)
MIC ([1]; Staphylococcus aureus, read-out: MIC alone, S. aureus SA7834, pair Methicillin / MBI 31): 64 µg/mL (≈ 168 µM)
MIC ([1]; Staphylococcus aureus, read-out: MIC alone, S. aureus SA7835, pair Methicillin / MBI 26): 32 µg/mL (≈ 84.1 µM)
MIC ([1]; Staphylococcus aureus, read-out: MIC alone, S. aureus SA7835, pair Methicillin / MBI 31): 64 µg/mL (≈ 168 µM)
MIC comb. ([2]; S. aureus SA7796, pair Methicillin / MBI 31): 2 µg/mL (≈ 5.26 µM)
MIC comb. ([2]; S. aureus SA7797, pair Methicillin / MBI 31): 2 µg/mL (≈ 5.26 µM)
MIC comb. ([2]; S. aureus SA7818, pair Methicillin / MBI 26): 4 µg/mL (≈ 10.5 µM)
MIC comb. ([2]; S. aureus SA7823, pair Methicillin / MBI 31): 2 µg/mL (≈ 5.26 µM)
MIC comb. ([2]; S. aureus SA7834, pair Methicillin / MBI 26): 8 µg/mL (≈ 21 µM)
MIC comb. ([2]; S. aureus SA7834, pair Methicillin / MBI 31): 1 µg/mL (≈ 2.63 µM)
MIC comb. ([2]; S. aureus SA7835, pair Methicillin / MBI 26): 4 µg/mL (≈ 10.5 µM)
MIC comb. ([2]; S. aureus SA7835, pair Methicillin / MBI 31): 2 µg/mL (≈ 5.26 µM)

CO/N=C(\C(=O)N[C@@H]1C(=O)N2C(C(=O)O)=C(CSc3nc(=O)c(=O)[nH]n3C)CS[C@H]12)c1csc(N)n1 [Ceftriaxone]
MIC in combination ([3]; P. aeruginosa PA008, pair Ceftriaxone / MBI 26): 8 µg/mL
MIC in combination ([3]; P. aeruginosa PA039, pair Ceftriaxone / MBI 11J02CN): 1 µg/mL
MIC in combination ([4]; S. maltophilia SMA021, pair Ceftriaxone / MBI 11B7CN): 1 µg/mL
MIC in combination ([4]; S. maltophilia SMA021, pair Ceftriaxone / MBI 26): 1 µg/mL
MIC in combination ([4]; S. maltophilia SMA023, pair Ceftriaxone / MBI 11B7CN): 8 µg/mL

Teicoplanin [reference compound]
MIC Alone ([4]; E. gallinarum 97046 VanC, pair Teicoplanin / MBI 26): 1 µg/mL
MIC Alone ([4]; E. gallinarum 97047 VanC, pair Teicoplanin / MBI 26): 8 µg/mL
MIC Alone ([4]; E. gallinarum 97049 VanC, pair Teicoplanin / MBI 26): 2 µg/mL

CC[C@H](C)[C@H](NC(=O)[C@H](C)NC(=O)[C@@H]1CCCN1C(=O)CNC(=O)[C@H](C)NC(=O)[C@@H](NC(=O)[C@H](CCCCN)NC(=O)[C@H](CC(C)C)NC(=O)CNC(=O)[C@H](CO)NC(=O)[C@H](CC(C)C)NC(=O)[C@@H](NC(=O)[C@H](CCCNC(=N)N)NC(=O)[C@H](CCCNC(=N)N)NC(=O)[C@H](Cc1c[nH]c2ccccc12)NC(=O)[C@H](Cc1c[nH]c2ccccc12)NC(=O)[C@H](CCCCN)NC(=O)[C@@H](N)CCCCN)C(C)C)[C@@H](C)O)C(=O)N[C@@H](CCC(N)=O)C(=O)N[C@@H](CO)C(=O)N[C@H](C(=O)N[C@@H](CC(C)C)C(=O)N[C@@H](CC(N)=O)C(=O)N[C@@H](CCCCN)C(=O)O)C(C)C [MBI 21A1, KKWWRRVLSGLKTAGPAIQSVLNK] (H-KKWWRRVLSGLKTAGPAIQSVLNK-OH; N-terminus and C-terminus assumed)
Peptide MI Alone [5, 7]: 32 µg/mL
MIC in combination ([4]; S. aureus SA014 MRSA, pair Tobramycin / MBI 21A1): 16 µg/mL

KWKLFIKKLTPAVKKVLLTGLPALIS [MBI 29F1]
MIC Alone ([4]; S. aureus SA025 MRSA, pair Amikacin / MBI 29F1): 1 µg/mL

KKWWRRALQGLKTAGPAIQSVLNK [MBI 21A2]
MIC Alone [4, 8]: 16 µg/mL
MIC in combination [4, 8]: 8 µg/mL
acquired resistance of S. aureus to piperacillin and ciprofloxacin ([2]; antibiotic agents combined with the peptide): overcome

R L A R I V V I R V A R [REWH 53A5CN]
Peptide MIC + Tobramycin ([5]; S. aureus SA014 MRSA): 8 µg/mL
Peptide MIC Alone ([5]; S. aureus SA014 MRSA): 16 µg/mL
Tobramycin MIC + Peptide ([5]; S. aureus SA014 MRSA): 0.125 µg/mL
Peptide MIC + Tobramycin ([5]; S. maltophilia SMA029): 16 µg/mL
Peptide MIC Alone ([5]; S. maltophilia SMA029): >128 µg/mL
Tobramycin MIC + Peptide ([5]; S. maltophilia SMA029): 4 µg/mL
Peptide MIC + Tobramycin ([5]; S. maltophilia SMA030): 32 µg/mL
Peptide MIC Alone ([5]; S. maltophilia SMA030): >128 µg/mL
Tobramycin MIC + Peptide ([5]; S. maltophilia SMA030): 0.25 µg/mL
FIC ([5]; S. aureus SA014 MRSA): 0.50
FIC ([5]; S. maltophilia SMA029): 0.08
FIC ([5]; S. maltophilia SMA030): 0.13
Peptide MIC + Tobramycin ([2]; S. maltophilia SMA029): 32 µg/mL
Tobramycin MIC + Peptide ([2]; S. maltophilia SMA029): 0.25 µg/mL
Peptide MIC Alone ([2]; S. maltophilia SMA029 (7. Tobramycin)): >128 µg/mL
Peptide MIC + Tobramycin ([2]; S. maltophilia SMA030): 32 µg/mL
Tobramycin MIC + Peptide ([2]; S. maltophilia SMA030): 0.25 µg/mL
Peptide MIC Alone ([2]; S. maltophilia SMA030 (7. Tobramycin)): >128 µg/mL
FIC [2, 9]: 0.13
FIC [2, 10]: 0.13

ILRWPWWPWRRKIMILKKAGS [MBI 11B16CN]
MIC ([6]; A. calcoaceticus AC002): 4 µg/mL
MIC ([6]; E. cloacae ECL007): >128 µg/mL
MIC ([6]; E. coli ECO005): 16 µg/mL
MIC ([6]; E. faecalis EFS001): 2 µg/mL
MIC ([6]; K. pneumoniae KP001): 16 µg/mL
MIC ([6]; P. aeruginosa PA004): >128 µg/mL
MIC ([6]; S. aureus SA093): 2 µg/mL
MIC ([6]; S. epidermidis SE010): 4 µg/mL
MIC ([6]; S. maltophilia SMA002): 32 µg/mL
MIC ([6]; S. marcescens SMS003): >128 µg/mL
MIC Alone ([4]; A baumannii ABI001, pair Amikacin / MBI 11B16CN): 32 µg/mL
FIC [4, 11]: 0.31
MIC Alone [4, 11]: 32 µg/mL
MIC in combination [4, 11]: 8 µg/mL
FIC [4, 12]: 0.14
MIC Alone [4, 12]: >128 µg/mL
MIC in combination [4, 12]: 32 µg/mL

CC1(C)S[C@@H]2[C@H](NC(=O)[C@H](N)c3ccccc3)C(=O)N2[C@H]1C(=O)O [Ampicillin]
MIC ([1]; Staphylococcus haemolyticus, read-out: MIC alone, S. haemolyticus SH8459, pair Ampicillin / MBI 26): 0.5 µg/mL (≈ 1.43 µM)
MIC ([1]; Staphylococcus haemolyticus, read-out: MIC alone, S. haemolyticus SH8564, pair Ampicillin / MBI 26): 64 µg/mL (≈ 183 µM)
MIC ([1]; Staphylococcus haemolyticus, read-out: MIC alone, S. haemolyticus SH8575, pair Ampicillin / MBI 26): 0.5 µg/mL (≈ 1.43 µM)
MIC ([1]; Staphylococcus haemolyticus, read-out: MIC alone, S. haemolyticus SH8578, pair Ampicillin / MBI 26): 0.5 µg/mL (≈ 1.43 µM)

I L K K F P F F P F R R K [MBI 11A1CN]
MIC ([6]; A. calcoaceticus AC002): 16 µg/mL
MIC ([6]; E. cloacae ECL007): >128 µg/mL
MIC ([6]; E. coli ECO002): 32 µg/mL
MIC ([6]; E. faecalis EFS002): 32 µg/mL
MIC ([6]; E. faecium EFM002): 1 µg/mL
MIC ([6]; H. influenzae HIN002): >128 µg/mL
MIC ([6]; K. pneumoniae KP002): >128 µg/mL
MIC ([6]; P. aeruginosa PA004): >128 µg/mL
MIC ([6]; P. vulgaris SBPV1): >128 µg/mL
MIC ([6]; S. aureus SA005): 8 µg/mL
MIC ([6]; S. epidermidis SE002): 16 µg/mL
MIC ([6]; S. maltophilia SMA002): >128 µg/mL
MIC ([6]; S. marcescens SBSM2): >128 µg/mL
MIC ([6]; S. pneumoniae SBSPN2): >128 µg/mL
Peptide MIC + Tobramycin ([2]; P. aeruginosa PA026): 0.125 µg/mL
Ciprofloxacin MIC + Peptide ([2]; S. aureus SA10): 0.125 µg/mL
Peptide MIC + Ciprofloxacin ([2]; S. aureus SA10): 64 µg/mL
Ciprofloxacin MIC + Peptide ([2]; S. aureus SA25): 0.125 µg/mL
Peptide MIC + Tobramycin ([2]; S. maltophilia SMA030): 64 µg/mL
Tobramycin MIC + Peptide ([2]; S. maltophilia SMA030): 2 µg/mL
FIC ([2]; peptide + Ciprofloxacin, S. aureus SA25): 0.53
FIC [2, 9]: 0.16
FIC [2, 10]: 0.27

KWKSFIKKLTSAAKKVLTTGLPALIS [MBI 29A3]
Peptide MI Alone ([5]; S. aureus SA10 (Ciprofloxacin section)): 2 µg/mL
Peptide MI Alone [5, 7]: 1 µg/mL
PIC ([5]; S. maltophilia SMA019): 0.31
PIC ([5]; S. maltophilia SMA021): 0.31
MIC in combination ([4]; S. maltophilia SMA063, pair Amikacin / MBI 29A3): 4 µg/mL
MIC Alone ([4]; SMA036): 64 µg/mL
MIC Alone ([4]; SMA063): 8 µg/mL
Peptide MIC Alone ([2]; EFS014): 1 µg/mL
Peptide MIC Alone ([2]; SA25): 1 µg/mL

C/C(=C\C(=O)OCCCCCCCCC(=O)O)C[C@@H]1OC[C@H](C[C@@H]2O[C@H]2[C@@H](C)[C@H](C)O)[C@@H](O)[C@H]1O [Mupirocin]
MIC in combination ([3]; P. aeruginosa PA2, pair Mupirocin / MBI 27): 0.1 µg/mL
MIC in combination ([3]; P. aeruginosa PA2, pair Mupirocin / MBI 29A3): 0.1 µg/mL
MIC in combination ([3]; P. aeruginosa PA3, pair Mupirocin / MBI 29A3): 0.1 µg/mL
MIC in combination ([3]; P. aeruginosa PA4, pair Mupirocin / MBI 27): 0.3 µg/mL
MIC in combination ([3]; P. aeruginosa PA4, pair Mupirocin / MBI 29A3): 0.1 µg/mL
MIC in combination ([3]; P. aeruginosa SBPA2, pair Mupirocin / MBI 29A3): 0.1 µg/mL
MIC in combination ([4]; E. coli SBECO1, pair Mupirocin / MBI 28): 0.1 µg/mL
MIC comb. ([2]; S. aureus MRSA 13, pair Mupirocin / MBI 10CN): 3 µg/mL (≈ 5.99 µM)
MIC comb. ([2]; S. aureus MRSA 17, pair Mupirocin / MBI 10CN, first line): 1 µg/mL (≈ 2 µM)
MIC comb. ([2]; S. aureus MRSA 17, pair Mupirocin / MBI 11G13CN): 1 µg/mL (≈ 2 µM)

NC[C@H]1O[C@H](O[C@H]2[C@H](O)[C@@H](O[C@H]3O[C@H](CO)[C@@H](O)[C@H](N)[C@H]3O)[C@H](N)C[C@@H]2N)[C@H](N)C[C@@H]1O [Tobramycin]
MIC ([1]; Stenotrophomonas maltophilia, read-out: MIC alone, S. maltophilia 041, pair Tobramycin / MBI 29): 16 µg/mL (≈ 34.2 µM)
MIC comb. ([2]; S. maltophilia 037, pair Tobramycin / MBI 29): 4 µg/mL (≈ 8.56 µM)
